The record followed here is ChEMBL document CHEMBL5385863, “Targeting the phosphoserine phosphatase MtSerB2 for tuberculosis drug discovery, an hybrid knowledge based /fragment based approach” (Eur J Med Chem, 2023).

Test [1] deals with Phosphoserine phosphatase SerB2 (Mycobacterium tuberculosis) (UniProt O53289). As to the kind of experiment: Inhibition of Mycobacterium tuberculosis SerB2 expressed in Escherichia coli BL21 at 1 mM incubated for 10 mins by malachite green dye based phosphatase assay.
Chain of Phosphoserine phosphatase SerB2 (Mycobacterium tuberculosis) (O53289 whole entry): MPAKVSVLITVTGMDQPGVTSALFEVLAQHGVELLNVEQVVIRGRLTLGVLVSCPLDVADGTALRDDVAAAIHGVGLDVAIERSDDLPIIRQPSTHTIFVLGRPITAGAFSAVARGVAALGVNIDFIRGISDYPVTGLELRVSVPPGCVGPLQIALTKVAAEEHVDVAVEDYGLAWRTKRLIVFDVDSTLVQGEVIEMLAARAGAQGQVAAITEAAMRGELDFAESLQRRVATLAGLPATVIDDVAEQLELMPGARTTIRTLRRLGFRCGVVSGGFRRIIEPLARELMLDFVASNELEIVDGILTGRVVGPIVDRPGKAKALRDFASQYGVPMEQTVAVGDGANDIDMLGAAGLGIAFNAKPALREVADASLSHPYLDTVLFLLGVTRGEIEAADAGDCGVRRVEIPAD
Test [2] has the same target. In words: Binding affinity to Mycobacterium tuberculosis SerB2 expressed in Escherichia coli BL21 (DE3) cells assessed as protein destabilization at 4 mM by differential scanning fluorimetry. A general note: DSF heats the sample and reads unfolding from a dye or from intrinsic fluorescence.
The target is the same in test [3]. As to the kind of experiment: Binding affinity to Mycobacterium tuberculosis SerB2 expressed in Escherichia coli BL21 (DE3) cells assessed as change in melting temperature at 4 mM by differential scanning fluorimetry.
For test [4] the target is unchanged. In words: Inhibition of Mycobacterium tuberculosis SerB2 expressed in Escherichia coli BL21 at 1 mM incubated for 10 mins by malachite green dye based phosphatase assay relative to control.

A word on the inhibition: it is how much of the control response was suppressed. One may read the ΔTm as the shift of the melting midpoint relative to a reference.

SMILES strings stand for the structures. Activity calls are given as the source filed them. The rule behind the calls is not given here.

For the compound `c1c[nH]cn1`, the inhibition entry in test [1] is “Active”.
For the compound `Nc1ccc(O)cc1`, the outcome in test [2] was inactive. For the same compound, the ΔTm in test [3] is more than 0.5 °C. The same compound displayed an inhibition in test [4] of more than 50%.
As to `c1ccc(-c2c[nH]cn2)cc1`, in test [2], the result was Active. The ΔTm in test [3] was more than 0.5 °C.
On the same counts, the results for `Nc1ccncc1` are “Active” and more than 0.5 °C.
On to `O=P(O)(O)C(O)(Cn1ccnc1)P(=O)(O)O`, for which the outcome in test [2] was Active. Besides, in test [3], the ΔTm is more than 0.5 °C. In addition, the inhibition in test [4] is more than 50%.
With `CCC(N)P(=O)(O)O` (configuration not stated), the inhibition result in test [1] was “Active”.
As to `NCCCP(=O)(O)O`, the inhibition entry in test [1] is “Active”.
In the case of `NC(=O)NO`, in test [2], the outcome was Active. Also, the thermal shift (ΔTm) in test [3] is more than 0.5 °C. The inhibition result in test [1] was “Active”.
Take `Cc1cc(C2CCCCC2)n(O)c(=O)c1`: in test [2], the outcome was Active. For the same compound, the ΔTm in test [3] is more than 0.5 °C.
For the compound `O=C(O)c1cc(O)ccn1`, the outcome in test [2] was Active. Also, the ΔTm in test [3] was more than 0.5 °C. This compound also registered an inhibition in test [4] of more than 50%.
`N[C@@H](CCS(=O)(=O)O)C(=O)O`: the outcome in test [2] was Active. Further, in test [3], the shift in melting temperature (ΔTm) is more than 0.5 °C.
As for `O=C(NO)Nc1ccc(Cl)cc1Cl`, the result in test [2] was Active. The shift in melting temperature (ΔTm) in test [3] is more than 0.5 °C. Besides, the inhibition in test [4] was more than 50%.
In the case of `Nc1ccc(C(=O)O)c(O)c1`, the inhibition entry in test [1] is “Active”.
